pIC50: −log10 of the molar value.

For orientation: pIC50 means −log10 of the IC50, conventionally taken in molar units. The low end stands for a large IC50, the high end for a small IC50.

What all share (format): cell-based
In one experiment the target is T1, human TLR7 (Homo sapiens, UniProt Q9NYK1).
T1 construct: host or cells: HEK-Blue cells
T1 sequence (Q9NYK1 27-1049): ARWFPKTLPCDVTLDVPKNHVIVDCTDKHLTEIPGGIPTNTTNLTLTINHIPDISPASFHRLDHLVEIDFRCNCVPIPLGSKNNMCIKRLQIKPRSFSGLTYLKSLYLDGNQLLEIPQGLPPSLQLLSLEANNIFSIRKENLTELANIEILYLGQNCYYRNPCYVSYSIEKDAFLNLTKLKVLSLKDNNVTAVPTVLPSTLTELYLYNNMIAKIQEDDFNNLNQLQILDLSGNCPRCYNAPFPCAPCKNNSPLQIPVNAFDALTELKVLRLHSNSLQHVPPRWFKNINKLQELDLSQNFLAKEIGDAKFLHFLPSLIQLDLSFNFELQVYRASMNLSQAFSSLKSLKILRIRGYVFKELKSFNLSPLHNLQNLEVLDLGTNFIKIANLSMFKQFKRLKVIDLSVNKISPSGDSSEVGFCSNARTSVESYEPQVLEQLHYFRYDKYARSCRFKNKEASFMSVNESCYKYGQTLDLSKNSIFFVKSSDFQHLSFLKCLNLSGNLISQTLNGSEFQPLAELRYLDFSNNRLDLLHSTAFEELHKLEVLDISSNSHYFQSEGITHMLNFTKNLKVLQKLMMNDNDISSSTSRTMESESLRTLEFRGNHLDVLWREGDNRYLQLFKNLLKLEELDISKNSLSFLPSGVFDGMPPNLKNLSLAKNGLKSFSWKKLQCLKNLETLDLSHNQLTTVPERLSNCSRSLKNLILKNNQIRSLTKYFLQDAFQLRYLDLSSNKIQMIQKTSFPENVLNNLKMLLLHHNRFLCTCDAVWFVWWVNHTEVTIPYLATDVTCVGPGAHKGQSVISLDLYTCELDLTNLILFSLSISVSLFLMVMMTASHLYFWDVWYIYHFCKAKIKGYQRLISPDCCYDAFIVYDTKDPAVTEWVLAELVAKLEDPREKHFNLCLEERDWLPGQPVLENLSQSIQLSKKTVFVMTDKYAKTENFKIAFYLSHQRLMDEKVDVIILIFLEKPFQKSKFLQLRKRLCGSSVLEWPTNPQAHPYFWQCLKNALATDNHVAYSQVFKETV
Kind of experiment: TLR7 inhibition reporter assay (HEK-Blue SEAP). To be noted: HEK-Blue cells overexpressing human TLR7, stimulated with gardiquimod 7.5 µM, 22 h incubation. As for the experimental part:
(§1) HEK-Blue™-cells (Invivogen) overexpressing human TLR7, TLR8 or TLR9 receptors were used for screening inhibitors of these receptors using an inducible SEAP (secreted embryonic alkaline phosphatase) reporter gene under the control of the IFN-β minimal promoter fused to five NF-κB and AP-1-binding sites. Briefly, cells are seeded into Greiner 384 well plates (15000 cells per well for TLR7, 20,000 for TLR8 and 25,000 for TLR9) and then treated with test compounds in DMSO to yield a final dose response concentration range of 0.05 nM - 50 µM. After a 30 minute compound pre-treatment at room temperature, the cells are then stimulated with a TLR7 ligand (gardiquimod at a final concentration of 7.5 µM), TLR8 ligand (R848 at a final concentration of 15.9 µM) or TLR9 ligand (ODN2006 at a final concentration of 5 nM) to activate NF-κB and AP-1 which induce the production of SEAP. After a 22 h incubation at 37°C, 5% CO2, SEAP levels are determined with the addition of HEK-Blue™ Detection reagent (Invivogen), a cell culture medium that allows for detection of SEAP, according to manufacturer's specifications. The percent inhibition is determined as the % reduction in the HEK-Blue signal present in wells treated with agonist plus DMSO alone compared to wells treated with a known inhibitor.
(A reporter such as luciferase makes a cellular process visible.)

The target of the next experiment is T2, human TLR8 (Homo sapiens, UniProt Q9NR97).
T2 construct: host or cells: HEK-Blue cells
T2 sequence (Q9NR97 27-1041): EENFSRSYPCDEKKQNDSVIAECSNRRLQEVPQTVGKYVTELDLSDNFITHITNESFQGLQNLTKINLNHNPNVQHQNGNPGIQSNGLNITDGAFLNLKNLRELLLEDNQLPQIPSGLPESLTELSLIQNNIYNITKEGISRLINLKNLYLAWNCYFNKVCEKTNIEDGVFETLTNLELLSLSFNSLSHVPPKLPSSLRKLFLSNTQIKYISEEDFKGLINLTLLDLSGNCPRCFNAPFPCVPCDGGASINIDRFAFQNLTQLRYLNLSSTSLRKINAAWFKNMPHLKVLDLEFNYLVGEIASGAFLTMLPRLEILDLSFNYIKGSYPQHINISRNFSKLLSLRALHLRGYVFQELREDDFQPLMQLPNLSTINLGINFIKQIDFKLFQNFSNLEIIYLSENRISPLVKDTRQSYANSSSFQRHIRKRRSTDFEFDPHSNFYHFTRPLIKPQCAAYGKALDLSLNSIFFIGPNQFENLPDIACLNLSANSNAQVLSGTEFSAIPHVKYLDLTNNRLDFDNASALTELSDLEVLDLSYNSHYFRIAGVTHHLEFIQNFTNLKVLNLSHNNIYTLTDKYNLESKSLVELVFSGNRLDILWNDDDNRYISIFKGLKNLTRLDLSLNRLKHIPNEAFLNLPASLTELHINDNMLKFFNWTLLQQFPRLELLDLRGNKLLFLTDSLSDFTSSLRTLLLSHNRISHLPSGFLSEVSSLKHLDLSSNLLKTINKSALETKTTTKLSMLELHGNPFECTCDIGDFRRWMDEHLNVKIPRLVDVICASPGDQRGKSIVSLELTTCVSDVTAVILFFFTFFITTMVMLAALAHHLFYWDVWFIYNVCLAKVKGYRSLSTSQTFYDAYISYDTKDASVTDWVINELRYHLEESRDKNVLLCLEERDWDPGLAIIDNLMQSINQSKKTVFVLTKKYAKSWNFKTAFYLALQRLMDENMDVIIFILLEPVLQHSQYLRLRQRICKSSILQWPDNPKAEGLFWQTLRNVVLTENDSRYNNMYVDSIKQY
The experiment can be described thus: TLR8 inhibition reporter assay (HEK-Blue SEAP). To be noted: HEK-Blue cells overexpressing human TLR8, stimulated with R848 15.9 µM, 22 h incubation. As for the experimental part:
as §1

The target in a further experiment is T3, human TLR9 (Homo sapiens, UniProt Q9NR96).
T3 construct: host or cells: HEK-Blue cells
T3 sequence (Q9NR96 26-1032): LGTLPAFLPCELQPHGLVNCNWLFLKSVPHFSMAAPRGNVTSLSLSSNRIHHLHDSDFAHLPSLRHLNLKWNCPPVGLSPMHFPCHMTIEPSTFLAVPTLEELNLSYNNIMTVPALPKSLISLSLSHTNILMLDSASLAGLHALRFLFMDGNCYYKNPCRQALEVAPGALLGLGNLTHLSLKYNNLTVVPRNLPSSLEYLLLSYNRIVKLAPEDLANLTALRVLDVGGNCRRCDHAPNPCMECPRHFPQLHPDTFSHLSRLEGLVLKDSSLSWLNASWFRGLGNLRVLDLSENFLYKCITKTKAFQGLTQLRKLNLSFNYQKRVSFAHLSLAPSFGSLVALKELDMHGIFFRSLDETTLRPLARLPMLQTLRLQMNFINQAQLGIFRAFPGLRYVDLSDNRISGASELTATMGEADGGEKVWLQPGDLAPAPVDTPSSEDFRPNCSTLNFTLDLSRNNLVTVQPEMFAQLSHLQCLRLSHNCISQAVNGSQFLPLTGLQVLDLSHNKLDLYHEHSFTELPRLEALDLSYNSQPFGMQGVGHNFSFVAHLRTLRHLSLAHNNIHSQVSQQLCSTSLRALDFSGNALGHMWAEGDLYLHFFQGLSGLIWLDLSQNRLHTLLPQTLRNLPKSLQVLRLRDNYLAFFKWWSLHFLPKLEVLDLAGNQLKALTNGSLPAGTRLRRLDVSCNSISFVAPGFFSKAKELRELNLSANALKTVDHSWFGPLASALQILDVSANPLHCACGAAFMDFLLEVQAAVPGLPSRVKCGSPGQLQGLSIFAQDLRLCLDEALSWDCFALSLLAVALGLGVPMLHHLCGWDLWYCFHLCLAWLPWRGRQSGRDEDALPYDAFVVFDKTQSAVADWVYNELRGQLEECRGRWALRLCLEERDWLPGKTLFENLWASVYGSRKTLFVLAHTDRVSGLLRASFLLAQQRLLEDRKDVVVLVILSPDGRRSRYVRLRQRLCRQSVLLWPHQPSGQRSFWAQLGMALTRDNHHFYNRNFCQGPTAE
The experiment can be described thus: TLR9 inhibition reporter assay (HEK-Blue SEAP). To be noted: HEK-Blue cells overexpressing human TLR9, stimulated with ODN2006 5 nM, 22 h incubation. As for the experimental part:
as §1

In the case of `COc1cc(-c2cc3[nH]c4ccc(C5CN(CCS(C)(=O)=O)C5)cc4c3c(C)c2C)cn2ncnc12` [Example 30, 2-(8-methoxy-[1,2,4]triazolo[1,5-a]pyridin-6-yl)-3,4-dimethyl-6-(1-(2-(methylsulfonyl)ethyl)azetidin-3-yl)-9H-carbazole], the negative-log IC50 (pIC50) at human TLR7 was 8.26; at human TLR8 it was 9.00; on human TLR9, 6.09.

Take `COc1cc(-c2cc3[nH]c4ccc(C5CCCN(CC(C)(C)O)C5)cc4c3c(C)c2C)cn2ncnc12` (stereo not drawn) [Example 31]: the pIC50 on human TLR7 was 8.09; at human TLR8, 8.92; at human TLR9, 6.23.

Consider `COc1cc(-c2cc3[nH]c4ccc(C5CCCN(CCS(C)(=O)=O)C5)cc4c3c(C)c2C)cn2ncnc12` (stereo not drawn) [Example 32], for which the pIC50 against human TLR7 is 8.03; on human TLR8, 8.70; at human TLR9 it was 6.10.

With `COc1cc(-c2cc3[nH]c4ccc(C5CCCN(C6COC6)C5)cc4c3c(C)c2C)cn2ncnc12` (stereo not drawn) [Example 33], the pIC50 against human TLR7 is 7.81; on human TLR8 it was 8.66; against human TLR9 it was 5.91.

Turning to `COc1cc(-c2cc3[nH]c4ccc(C5CCCN(CC#N)C5)cc4c3c(C)c2C)cn2ncnc12` (stereo not drawn) [Example 34], the pIC50 against human TLR7 is 8.89; against human TLR8, 8.60; against human TLR9, 6.49.

Regarding `COc1cc(-c2cc3[nH]c4ccc(C5CN(C(=O)CN(C)C)C5)cc4c3c(C)c2C)cn2ncnc12` [Example 35], the pIC50 was 8.35 against human TLR7, 8.48 at human TLR8 and 6.07 against human TLR9.

Turning to `COc1cc(-c2cc3[nH]c4ccc(C5CN(C6COC6)C5)cc4c3c(C)c2C)cn2ncnc12` [Example 36], the pIC50 is 8.25 on human TLR7, 8.74 on human TLR8 and 6.06 against human TLR9.

Regarding `COc1cc(-c2cc3[nH]c4ccc(C5CN(CC(C)(C)O)C5)cc4c3c(C)c2C)cn2ncnc12` [Example 38], the pIC50 against human TLR7 was 8.60; against human TLR8, 9.40; on human TLR9, 6.29.

Regarding `COc1cc(-c2cc3[nH]c4ccc(C5CN(CC#N)C5)cc4c3c(C)c2C)cn2ncnc12` [Example 39], the figures for the negative logarithm of the IC50 (pIC50) on human TLR7, at human TLR8 and at human TLR9 were 7.96, 8.40 and 5.91, respectively.
